Assay results as given in patent publication US20250163043A1 (TRANSTHERA SCIENCES (NANJING), INC., priority 2021, published 2025).

What was measured:
Assay type in all cases: biochemical
CDK2/CycA2 = CDK2/CycA2 (Homo sapiens, UniProt P24941); test: ADP-Glo kinase assay on CDK enzymatic activity, CDK2/CycA2; settings: 10 concentrations from 10 μM, 4-fold, 60 min room temperature
From the text: (§1) Test samples: the compounds of the present invention, having structures shown above.
(§2) ADP-Glo Kinase Assay (ADP-Glo kinase kit), DMSO (dimethyl sulfoxide), CDK9/CycT1 (cyclin-dependent kinase 9/cyclin T1), CDK tide (cyclin-dependent kinase substrate peptide fragments), CDK1/CycE1 (cyclin-dependent kinase 1/cyclin E1), CDK2/CycA2 (cyclin-dependent kinase 2/cyclin A2), CDK3/CycE1 (cyclin-dependent kinase 3/cyclin E1), CDK4/CycD3 (cyclin-dependent kinase 4/cyclin D3), CDK5/p25NCK (cyclin-dependent kinase 5/p25), and AZD 4573.
(§3) A 384-well white plate, a 96-well plate, a microplate oscillator, a centrifuge, and a microplate reader.
(§4) The compounds were dissolved in DMSO and diluted 4-fold in the 96-well plate to obtain stock solutions with 10 concentration gradients, and added into a 384-well plate system to obtain a series of 10 concentration gradients of compound solutions with final concentrations of 10 μM starting and 4-fold gradient decreasing. 1 μM AZD4573 was used as compound positive control (PC) and 0.5% DMSO as solvent vehicle control (VC), ten duplicated wells each for PC and VC.
(§5) 1 μL of compound solution and 2 μL of 2× kinase solution were transferred to each well, and the plate was centrifuged at 1000 g for 30 s and left at room temperature for 10 min. A mixture of 2× substrate and ATP was prepared in 1× kinase buffer. The reaction was started after adding 2 μL of substrate and ATP into the plate. The plate was centrifuged at 1000 g for 30 s. The assay plate was closed and left at room temperature for 60 min. The reaction system was added with 4 μL of ADP Glo reagent, centrifuged at 1000 rpm for 1 min, and incubated at room temperature for 40 min. The reaction system was added with 8 μL of kinase assay reagent, centrifuged at 1000 rpm for 1 min and incubated at room temperature for 40 min. The […] was read on Biotek.
(§6) The inhibition rate was calculated according to the following formula: […]
(§7) Lumcmpd: compound fluorescence reading; Lumpositive: average value of the fluorescence reading of positive compound control; Lumvehicle: average value of the fluorescence reading of solvent vehicle control.
(§8) IC50 values were fitted using GraphPad 7.0 based on inhibition rates of compounds at different concentrations.

CDK1/CycE1 = CDK1/CycE1 (Homo sapiens, UniProt P06493); test: ADP-Glo kinase assay on CDK enzymatic activity, CDK1/CycE1; settings: ADP-Glo; 10 concentrations from 10 μM, 4-fold; 60 min room temperature; read-out: CDK1/CycE1/nM (IC50)
Method: as §1, §3, §4, §5, §6, §7, §8

CDK9/CycT1 = CDK9/CycT1 (Homo sapiens, UniProt P50750); test: ADP-Glo kinase assay on CDK enzymatic activity, CDK9/CycT1; settings: 10 concentrations from 10 μM, 4-fold, 60 min room temperature
From the text: as §1, §2, §3, §4, §5, §6, §7, §8

Sequence of CDK9/CycT1 (P50750 whole entry): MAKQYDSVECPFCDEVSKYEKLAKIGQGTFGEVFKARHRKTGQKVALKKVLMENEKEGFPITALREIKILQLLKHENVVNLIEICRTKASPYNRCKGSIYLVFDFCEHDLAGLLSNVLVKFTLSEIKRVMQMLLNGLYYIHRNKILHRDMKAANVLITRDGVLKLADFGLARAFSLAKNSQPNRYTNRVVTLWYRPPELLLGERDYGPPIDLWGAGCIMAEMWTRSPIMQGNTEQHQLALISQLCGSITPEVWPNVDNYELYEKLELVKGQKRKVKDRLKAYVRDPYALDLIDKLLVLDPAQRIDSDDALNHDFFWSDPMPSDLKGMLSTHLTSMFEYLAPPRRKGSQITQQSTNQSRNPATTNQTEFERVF
Sequence of CDK9/CycT1 (O60563 whole entry partner): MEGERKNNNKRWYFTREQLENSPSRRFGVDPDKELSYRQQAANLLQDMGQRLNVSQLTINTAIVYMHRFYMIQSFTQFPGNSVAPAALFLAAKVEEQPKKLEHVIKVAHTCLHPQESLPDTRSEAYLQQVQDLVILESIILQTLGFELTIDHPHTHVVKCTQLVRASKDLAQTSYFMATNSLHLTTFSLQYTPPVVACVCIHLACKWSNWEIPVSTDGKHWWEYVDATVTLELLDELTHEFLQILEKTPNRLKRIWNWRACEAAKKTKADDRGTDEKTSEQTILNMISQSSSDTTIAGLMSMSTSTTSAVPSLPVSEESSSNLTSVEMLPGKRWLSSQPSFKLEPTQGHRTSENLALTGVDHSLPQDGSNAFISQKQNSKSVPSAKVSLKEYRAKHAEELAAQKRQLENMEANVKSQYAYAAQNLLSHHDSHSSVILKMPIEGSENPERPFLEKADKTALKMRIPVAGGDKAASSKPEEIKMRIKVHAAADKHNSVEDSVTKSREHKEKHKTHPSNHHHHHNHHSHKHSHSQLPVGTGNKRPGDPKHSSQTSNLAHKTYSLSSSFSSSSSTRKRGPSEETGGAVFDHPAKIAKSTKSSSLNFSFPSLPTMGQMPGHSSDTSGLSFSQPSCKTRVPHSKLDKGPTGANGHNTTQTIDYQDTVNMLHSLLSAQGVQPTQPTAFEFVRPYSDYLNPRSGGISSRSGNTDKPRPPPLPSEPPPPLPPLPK
Sequence of CDK1/CycE1 (P06493 whole entry, species assumed): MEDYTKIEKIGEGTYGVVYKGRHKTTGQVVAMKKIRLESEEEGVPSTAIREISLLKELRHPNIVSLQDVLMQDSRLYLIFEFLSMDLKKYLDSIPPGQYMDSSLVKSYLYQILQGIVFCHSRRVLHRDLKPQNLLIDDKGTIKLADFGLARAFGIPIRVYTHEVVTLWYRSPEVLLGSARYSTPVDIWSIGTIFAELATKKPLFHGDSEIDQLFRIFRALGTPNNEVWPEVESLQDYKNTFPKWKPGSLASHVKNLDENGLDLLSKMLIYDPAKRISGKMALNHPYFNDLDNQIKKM
Sequence of CDK1/CycE1 (P24864 whole entry partner, species assumed): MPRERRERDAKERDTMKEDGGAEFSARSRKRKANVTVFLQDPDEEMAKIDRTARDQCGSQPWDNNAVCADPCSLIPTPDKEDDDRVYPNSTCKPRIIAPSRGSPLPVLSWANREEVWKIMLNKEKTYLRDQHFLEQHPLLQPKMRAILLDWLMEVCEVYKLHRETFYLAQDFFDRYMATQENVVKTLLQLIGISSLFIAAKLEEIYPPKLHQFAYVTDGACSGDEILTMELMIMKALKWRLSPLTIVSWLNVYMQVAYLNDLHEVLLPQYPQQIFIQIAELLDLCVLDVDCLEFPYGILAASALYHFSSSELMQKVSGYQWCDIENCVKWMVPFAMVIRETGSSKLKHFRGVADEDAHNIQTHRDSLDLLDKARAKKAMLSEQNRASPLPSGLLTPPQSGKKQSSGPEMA

| Structure (SMILES) | IC50 (CDK2/CycA2) [nM] | IC50 (CDK1/CycE1) [nM] | IC50 (CDK9/CycT1) [nM] |
| --- | --- | --- | --- |
| N#Cc1cc2cnc(N[C@H]3CCCNC3)cc2c(C2CCCC2)n1 [Compound 187, (S)-1-cyclopentyl-7-(piperidin-3-ylamino)-2,6-naphthyridine-3-carbonitrile] | 958 | 413 | 8 |
| CC(C)Nc1nc(C#N)cc2cnc(N[C@H]3C[C@H](N)C3)cc12 [Compound 183, 7-(((1r,3r)-3-aminocyclobutyl)amino)-1-(isopropylamino)-2,6-naphthyridine-3-carbonitrile] | 28 | 50 | 1 |
| CC(C)Nc1nc(C#N)cc2cnc(N[C@H]3C[C@@H](N)C3)cc12 [Compound 164, 7-(((1s,3s)-3-aminocyclobutyl)amino)-1-(isopropylamino)-2,6-naphthyridine-3-carbonitrile] | 135 | 138 | 1 |
| N#Cc1cc2cnc(N[C@H]3CCCNC3)cc2c(C2=CCCC2)n1 [Compound 181] | 153 | 518 | 7 |
| CC(C)Nc1nc(C#N)cc2cnc(Nc3cc(CS(C)(=N)=O)ccn3)cc12 (stereo not shown) [Compound 170, 1-(isopropylamino)-7-((4-((S-methylsulfonimidoyl)methyl)pyridin-2-yl)amino)-2,6-naphthyridine-3-carbonitrile] | 34 | 144 | 4 |
| N#Cc1cc2cnc(N[C@H]3C[C@@H](N)C3)cc2c(N[C@@H]2CCOC2)n1 [Compound 174, 7-(((1s,3S)-3-aminocyclobutyl)amino)-1-(((R)-tetrahydrofuran-3-yl)amino)-2,6-naphthyridine-3-carbonitrile] | 510 | 871 | 2 |
| N#Cc1cc2cnc(N[C@H]3CCCNC3)cc2c(C2=CCCCC2)n1 [Compound 180, (S)-1-(cyclohex-1-en-1-yl)-7-(piperidin-3-ylamino)-2,6-naphthyridine-3-carbonitrile] | 844 | 204 | 7 |
| CC(C)Nc1nc(C#N)cc2cnc(N[C@H]3CC[C@H](N4CCOCC4)CC3)nc12 [Compound 141, 8-(isopropylamino)-2-(((1r,4r)-4-morpholinocyclohexyl)amino)pyrido[3,4-d]pyrimidine-6-carbonitrile] | 23 | 197 | 2 |
| CC(C)Nc1nc(C#N)cc2cnc(N[C@H]3CC[C@H](N(C)C)CC3)nc12 [Compound 138, 2-(((1r,4r)-4-(dimethylamino)cyclohexyl)amino)-8-(isopropylamino)pyrido[3,4-d]pyrimidine-6-carbonitrile] | 49 | 166 | 3 |
| CC(C)Nc1nc(C#N)cc2cnc(N[C@H]3C[C@](C)(N)C3)cc12 [Compound 209, 7-((trans)-3-amino-3-methylcyclobutyl)amino-1-(isopropylamino)-2,6-naphthyridine-3-carbonitrile] | 306 | 170 | 2 |
| CC1(Nc2nc(C#N)cc3cnc(N[C@H]4C[C@](C)(N)C4)cc23)CC1 [Compound 211, 7-((trans)-3-amino-3-methylcyclobutyl)amino-1-((1-methylcyclopropyl)amino)-2,6-naphthyridine-3-carbonitrile] | 434 | 233 | 3 |
| CCOc1nc(C#N)cc2cnc(N[C@H]3CCCNC3)cc12 [Compound 198, (S)-1-ethoxy-7-(piperidin-3-ylamino)-2,6-naphthyridine-3-carbonitrile] | – | – | 12 |

Results, then the compound that gave them:

| IC50 (CDK2/CycA2) [nM] | IC50 (CDK1/CycE1) [nM] | IC50 (CDK9/CycT1) [nM] | Structure (SMILES) |
| --- | --- | --- | --- |
| 93 | 34 | 1 | CC(C)Nc1nc(C#N)cc2cnc(N[C@H]3C[C@](C)(N)C3)nc12 [Compound C26, 2-(((1r,3r)-3-amino-3-methylcyclobutyl)amino)-8-(isopropylamino)pyrido[3,4-d]pyrimidine-6-carbonitrile] |
| 82 | 540 | 1 | COC[C@@H](C)Nc1nc(C#N)cc2cnc(N[C@H]3C[C@H](N)C3)nc12 [Compound C41, 2-(((1r,3R)-3-aminocyclobutyl)amino)-8-(((R)-1-methoxypropan-2-yl)amino)pyrido[3,4-d]pyrimidine-6-carbonitrile] |
| 18 | 71 | 1 | CN[C@H]1C[C@H](Nc2ncc3cc(C#N)nc(NC(C)C)c3n2)C1 [Compound C20, 8-(isopropylamino)-2-(((1r,3r)-3-(methylamino)cyclobutyl)amino)pyrido[3,4-d]pyrimidine-6-carbonitrile] |
| 32 | 25 | 2 | N#Cc1cc2cnc(N[C@H]3C[C@H](N)C3)nc2c(NC23CC(C2)C3)n1 [Compound C36, 2-(((1r,3r)-3-aminocyclobutyl)amino)-8-(bicyclo[1.1.1]pentan-1-ylamino)pyrido[3,4-d]pyrimidine-6-carbonitrile] |
| 83 | 99 | 2 | N#Cc1cc2cnc(N[C@H]3C[C@H](N)C3)nc2c(NC2CCOCC2)n1 [Compound C30, 2-(((1r,3r)-3-aminocyclobutyl)amino)-8-((tetrahydro-2H-pyran-4-yl)amino)pyrido[3,4-d]pyrimidine-6-carbonitrile] |
| 34 | 186 | 1 | CCNc1nc(C#N)cc2cnc(N[C@H]3C[C@H](N)C3)nc12 [Compound C28, 2-(((1r,3r)-3-aminocyclobutyl)amino)-8-(ethylamino)pyrido[3,4-d]pyrimidine-6-carbonitrile] |
| 8 | 8 | 1 | CC(C)(C)Nc1nc(C#N)cc2cnc(N[C@H]3C[C@H](O)C3)nc12 [Compound C9, 8-(tert-butylamino)-2-(((1r,3r)-3-hydroxycyclobutyl)amino)pyrido[3,4-d]pyrimidine-6-carbonitrile] |
| 330 | 202 | 4 | CC(C)Nc1nc(C#N)cc2cnc(N[C@H]3CCCCNC3)nc12 [Compound C6, (S)-2-(azepan-3-ylamino)-8-(isopropylamino)pyrido[3,4-d]pyrimidine-6-carbonitrile] |
| 19 | 112 | 1 | CC1(Nc2nc(C#N)cc3cnc(N[C@H]4C[C@H](N)C4)nc23)CC1 [Compound C35, 2-(((1r,3r)-3-aminocyclobutyl)amino)-8-((1-methylcyclopropyl)amino)pyrido[3,4-d]pyrimidine-6-carbonitrile] |
| 32 | 127 | 2 | CCCNc1nc(C#N)cc2cnc(N[C@H]3C[C@H](N)C3)nc12 [Compound C14, 2-(((1r,3r)-3-aminocyclobutyl)amino)-8-(propylamino)pyrido[3,4-d]pyrimidine-6-carbonitrile] |
| 5 | 21 | 2 | CC(C)Nc1nc(C#N)cc2cnc(N[C@H]3C[C@H](CO)C3)nc12 [Compound C31, 2-(((1r,3r)-3-(hydroxymethyl)cyclobutyl)amino)-8-(isopropylamino)pyrido[3,4-d]pyrimidine-6-carbonitrile] |
| 144 | 74 | 3 | CC(C)(C)Nc1nc(C#N)cc2cnc(N[C@H]3CCCNC3)nc12 [Compound C7, (S)-8-(tert-butylamino)-2-(piperidin-3-ylamino)pyrido[3,4-d]pyrimidine-6-carbonitrile] |
| – | – | 1 | CCNc1nc(C#N)cc2cnc(N[C@H]3C[C@](C)(N)C3)nc12 [Compound C38, 2-(((1r,3r)-3-amino-3-methylcyclobutyl)amino)-8-(ethylamino)pyrido[3,4-d]pyrimidine-6-carbonitrile] |
| – | – | 1 | CCNc1nc(C#N)cc2cnc(N[C@H]3C[C@H](NC)C3)nc12 [Compound C43, 8-(ethylamino)-2-(((1r,3r)-3-(methylamino)cyclobutyl)amino)pyrido[3,4-d]pyrimidine-6-carbonitrile] |
| – | – | 5 | CN(C)[C@H]1CC[C@H](Nc2ncc3cc(C#N)nc(N[C@@H]4CCOC4)c3n2)CC1 [Compound C40, 2-(((1r,4R)-4-(dimethylamino)cyclohexyl)amino)-8-(((R)-tetrahydrofuran-3-yl)amino)pyrido[3,4-d]pyrimidine-6-carbonitrile] |
